From patent US11221321B2, “Liquid chromatographic method for the simultaneous analysis of antihypertensive and antilipidemic agents and interactions thereof” (Imam Abdulrahman Bin Faisal University, priority 2019, dated 2022)

Assay: In vitro drug-drug interaction studies of sartan and statin in dissolution media by UV/Visible spectrophotometry
Format: physicochemical
Conditions: SGM and pH 4, 7.4, 9, 37° C., 2 hours; for interaction of losartan and atorvastatin (FIG. 7): LOS + ATR added together at 0 min; for interaction of valsartan and atorvastatin (FIG. 10): VAL + ATR added together at 0 min
Protocol: Interaction studies by UV/Visible spectrophotometry. In vitro interaction studies of antihypertensive drugs and antilipidemic agents were studied individually by using different kinds of dissolution media: SGM and media at pH 4, 7.4 and 9 as described in the experimental section.
In each set of experiments losartan or valsartan was initially added at 0 min to 500 mL dissolution medium SGM or media at pH 4, 7.4 and 9 already maintained at 37° C. The second drug, statin (ATOR, PRA or SIM) was added at the same time at zero mins. 5 mL samples were collected at regular intervals for 2 hours. The drug contents (losartan in presence of respective interacting drug, and valsartan in presence of respective interacting drug) were quantified spectrophotometrically at their respective λmax by employing simultaneous equations; FIGS. 7-12.
In FIG. 7, the drug contents (losartan in presence of respective interacting drug) were quantified spectrophotometrically at their respective λmax by employing simultaneous equations, that is, by using the molar absorptive value of the drug at a particular wavelength and a particular pH.
As the spectra of the two interacting drugs fused with each other, simultaneous methods were developed to determine losartan/valsartan and drugs of interacting classes along with each other. This technique enables one to quantitate the content of the two drugs co-existing in the same medium, without needing to separate them. To achieve this, molar absorptivity values of both losartan and the respective interacting drug were calculated at λmax of their own and at the λmax of each other using their calibration curves standards in all four pH medium.

| interaction of losartan and atorvastatin (FIG. 7) | interaction of valsartan and atorvastatin (FIG. 10) | interaction of losartan and pravastatin (FIG. 8) (LOS + PRA added together at 0 min) | interaction of losartan and simvastatin (FIG. 9) (LOS + SIM added together at 0 min) | interaction of valsartan and pravastatin (FIG. 11) (VAL + PRA added together at 0 min) | interaction of valsartan and simvastatin (FIG. 12) (VAL + SIM added together at 0 min) | SMILES |
| --- | --- | --- | --- | --- | --- | --- |
| have undergone interaction | may interact in the digestive tract |  |  |  |  | CC(C)c1c(C(=O)Nc2ccccc2)c(-c2ccccc2)c(-c2ccc(F)cc2)n1CC[C@@H](O)C[C@@H](O)CC(=O)O [ATR, Atorvastatin] |
| have undergone interaction |  | may interact in the digestive tract | NOT available in their original form |  |  | CCCCc1nc(Cl)c(CO)n1Cc1ccc(-c2ccccc2-c2nn[nH]n2)cc1 [LOS, Losartan] |
|  | may interact in the digestive tract |  |  | may interact in the digestive tract | may interact in the digestive tract | CCCCC(=O)N(Cc1ccc(-c2ccccc2-c2nnn[nH]2)cc1)[C@H](C(=O)O)C(C)C [VAL, Valsartan] |
